The text below walks through data of PMC7356696, “Synthesis, Antimicrobial Activity and Molecular Docking of Novel Thiourea Derivatives Tagged with Thiadiazole, Imidazole and Triazine Moieties as Potential DNA Gyrase and Topoisomerase IV Inhibitors” (Molecules, 2020).

The term IC50 denotes the midpoint of a concentration-inhibition curve. The MIC is the lowest concentration that inhibits growth of the organism. As a reminder, the zone of inhibition is the size of the clear area around the sample on an inoculated plate.

In one data set the target is T1, E. coli Topoisomerase IV (Escherichia coli, UniProt P20083).
T1 construct: purchased Inspiralis
As to the kind of experiment: In vitro enzyme inhibition, topoisomerase IV decatenation kit (Inspiralis). Type of data set: biochemical. Here is the method:
(§1) This test was performed at the Confirmatory Diagnostic Unit, VACSERA, Egypt.
(§2) The screening performed against E. coli DNA gyrase B, E. coli Topoisomerase IV and dihydrofolate reductase enzymes.

Data set [1] has as its system Pseudomonas aeruginosa ATCC 27853. The experiment in a line: MIC, modified agar well diffusion method. Type of data set: cell-based. The following applies: ATCC27853, P. aeruginosa ATCC 27853, read-out: MIC (Mean ± SEM). The text has this: (§3) The antimicrobial activity of all synthesized compounds 2–13 was screened against a panel of two Gram-positive bacteria (Staphylococcus aureus ATCC 29213 and Bacillus subtilis ATCC 6633), two Gram-negative bacteria (Escherichia coli ATCC 25922, Pseudomonas aeruginosa ATCC 27853) and two fungi (Candida albicans ATCC 10231 and Aspergillus flavus ATCC 46283) using the agar well diffusion method. Ciprofloxacin and clotrimazole were used as antibacterial and antifungal standards, respectively. The results of this study were recorded as the average diameter of the inhibition zones (IZ) in Table 1. […] Additionally, the promising activity against S. aureus was observed from compounds 9, 12 and 13, however against B. subtilis from compounds 12 and 13.
(§4) The antimicrobial assay was performed in vitro for the target compounds 2–13 against Staphylococcus aureus ATCC 29213, Bacillus subtilis ATCC 6633 as Gram-positive bacteria, Escherichia coli ATCC 25922, Pseudomonas aeruginosa ATCC 27853 as Gram-negative bacteria and Candida albicans ATCC 10231, Aspergillus flavus ATCC 46283 as fungi. At the first, 100 μL of the test bacteria/fungi were grown in 10 mL of fresh media until they reached a count of approximately 10^8 cells/ml for bacteria or 10^5 cells/mL for fungi. One milliliter of each sample (at 0.5 mg/mL) was added to each well (10 mm diameter holes cut in the agar gel). The plates were incubated for 24 h at 37 °C (for bacteria and yeast) and for 72 h at 27 °C (for filamentous fungi), each test was repeated three times. After incubation, the microorganism’s growth was observed. Ciprofloxacin and clotrimazole were used as standard antibacterial and antifungal drugs, respectively. The resulting inhibition zone diameters were measured in millimeters using the diffusion technique. […] The different concentrations (triplicate) of each compound were tested and compared with standard drugs.
A general note: In agar diffusion tests the substance spreads into inoculated agar from a disc or well.

The subject of data set [2] is Bacillus subtilis ATCC 6633. The experiment in a line: MIC, modified agar well diffusion method. The format is cell-based. As to conditions: ATCC6633, B. subtilis ATCC 6633, read-out: MIC (Mean ± SEM).
Text: as §3, §4

The subject of data set [3] is Staphylococcus aureus ATCC 29213. As to the kind of experiment: MIC, modified agar well diffusion method. Type of data set: cell-based. As to conditions: ATCC29213, S. aureus ATCC 29213, read-out: MIC (Mean ± SEM).
Text: as §3, §4

Data set [4] deals with Escherichia coli ATCC 25922. The experiment in a line: MIC, modified agar well diffusion method. The following applies: ATCC25922, E. coli ATCC 25922, read-out: MIC (Mean ± SEM). Type of data set: cell-based.
Text: as §3, §4

For data set [5], the system named is Candida albicans ATCC 10231. The experiment in a line: MIC, modified agar well diffusion method. The following applies: ATCC10231, C. albicans ATCC 10231, read-out: MIC (Mean ± SEM). The format is cell-based.
Text: as §3, §4

Data set [6] has as its system Aspergillus flavus ATCC 46283. The experiment in a line: MIC, modified agar well diffusion method. The format is cell-based. As to conditions: ATCC46283, A. flavus ATCC 46283, read-out: MIC (Mean ± SEM).
Text: as §3, §4

The subject of data set [7] is Pseudomonas aeruginosa ATCC 27853. The experiment in a line: Agar well diffusion, inhibition zone. Type of data set: cell-based. Also on record: dose or concentration left out as unconfirmed. As to conditions: ATCC27853, P. aeruginosa ATCC 27853, NA = No Activity, read-out: Mean Diameter of Inhibition Zone (Mean ± SEM).
Text: as §3, §4

Data set [8] deals with Escherichia coli ATCC 25922. As to the kind of experiment: Agar well diffusion, inhibition zone. Type of data set: cell-based. Also on record: dose or concentration left out as unconfirmed. The following applies: ATCC25922, E. coli ATCC 25922, NA = No Activity, read-out: Mean Diameter of Inhibition Zone (Mean ± SEM).
Text: as §3, §4

For data set [9], the system named is Candida albicans ATCC 10231. As to the kind of experiment: Agar well diffusion, inhibition zone. Type of data set: cell-based. Also on record: dose or concentration left out as unconfirmed. The following applies: ATCC10231, C. albicans ATCC 10231, NA = No Activity, read-out: Mean Diameter of Inhibition Zone (Mean ± SEM).
Text: as §3, §4

In data set [10] the test system is Aspergillus flavus ATCC 46283. The experiment in a line: Agar well diffusion, inhibition zone. Type of data set: cell-based. Also on record: dose or concentration left out as unconfirmed. As to conditions: ATCC46283, A. flavus ATCC 46283, NA = No Activity, read-out: Mean Diameter of Inhibition Zone (Mean ± SEM).
Text: as §3, §4

Another data set deals with T2, E. coli DNA gyrase B (Escherichia coli, UniProt P0AES6).
T2 construct: purchased Inspiralis
The experiment in a line: In vitro enzyme inhibition, DNA gyrase microplate assay kit (Inspiralis). Type of data set: biochemical. On the procedure: as §1, §2

The nature of data set [11]: MTT assay for cytotoxic activity. As to conditions: African green monkey, Vero cells (normal kidney epithelial cell line), read-out: IC50 (Mean ± SEM), cytotoxic activity. Type of data set: cell-based. The text has this: (§5) The results are expressed as IC50 values (µM) and are depicted in Table 3.
On the technique in general: Formazan colour is commonly taken as a measure of viable cells.

Data set [12] has as its system human breast cancer (MCF-7) cells. The experiment in a line: MTT assay for cytotoxic activity. Type of data set: cell-based. As to conditions: Homo sapiens, MCF7, MCF-7 cells, read-out: IC50 (Mean ± SEM), cytotoxic activity.
Text: as §5

For data set [13], the target named is T3, dihydrofolate reductase (DHFR) (Homo sapiens, UniProt P00374).
T3 construct: purchased Bio Vision
T3 sequence (P00374 1-187): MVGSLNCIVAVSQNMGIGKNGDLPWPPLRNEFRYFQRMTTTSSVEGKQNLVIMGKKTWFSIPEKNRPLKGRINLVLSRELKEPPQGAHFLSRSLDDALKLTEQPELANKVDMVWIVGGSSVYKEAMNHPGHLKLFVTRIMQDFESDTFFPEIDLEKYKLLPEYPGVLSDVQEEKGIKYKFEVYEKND
As to the kind of experiment: Dihydrofolate reductase inhibitor screening kit (colorimetric, BioVision). The format is biochemical. The following applies: read-out: IC50 (mean ± SEM). On the procedure: as §1, §2

Data set [14] concerns Bacillus subtilis ATCC 6633. The experiment in a line: Agar well diffusion, inhibition zone. Type of data set: cell-based. Also on record: dose or concentration left out as unconfirmed. As to conditions: ATCC6633, B. subtilis ATCC 6633, NA = No Activity, read-out: Mean Diameter of Inhibition Zone (Mean ± SEM).
Text: as §3
as §4, with “One milliliter of each sample (at 0.5 mg/mL) was added to each well (10 mm diameter holes cut in the agar gel).” left out

Data set [15] relates to Staphylococcus aureus ATCC 29213. The experiment in a line: Agar well diffusion, inhibition zone. The format is cell-based. Also on record: dose or concentration left out as unconfirmed. As to conditions: ATCC29213, S. aureus ATCC 29213, NA = No Activity, read-out: Mean Diameter of Inhibition Zone (Mean ± SEM).
Text: as §3
as §4, with “One milliliter of each sample (at 0.5 mg/mL) was added to each well (10 mm diameter holes cut in the agar gel).” left out

Data set [16] relates to Staphylococcus aureus DNA gyrase. On the set-up: method as in PMID 25792505. As to conditions: cited from earlier work.
Data set [17] addresses T3, dihydrofolate reductase (DHFR). On the set-up: method as in PMID 23792351. The following applies: cited from earlier work.

In brackets after ≈: the same amount, converted by molar mass.

T1 sequence (P0AFI2 whole entry): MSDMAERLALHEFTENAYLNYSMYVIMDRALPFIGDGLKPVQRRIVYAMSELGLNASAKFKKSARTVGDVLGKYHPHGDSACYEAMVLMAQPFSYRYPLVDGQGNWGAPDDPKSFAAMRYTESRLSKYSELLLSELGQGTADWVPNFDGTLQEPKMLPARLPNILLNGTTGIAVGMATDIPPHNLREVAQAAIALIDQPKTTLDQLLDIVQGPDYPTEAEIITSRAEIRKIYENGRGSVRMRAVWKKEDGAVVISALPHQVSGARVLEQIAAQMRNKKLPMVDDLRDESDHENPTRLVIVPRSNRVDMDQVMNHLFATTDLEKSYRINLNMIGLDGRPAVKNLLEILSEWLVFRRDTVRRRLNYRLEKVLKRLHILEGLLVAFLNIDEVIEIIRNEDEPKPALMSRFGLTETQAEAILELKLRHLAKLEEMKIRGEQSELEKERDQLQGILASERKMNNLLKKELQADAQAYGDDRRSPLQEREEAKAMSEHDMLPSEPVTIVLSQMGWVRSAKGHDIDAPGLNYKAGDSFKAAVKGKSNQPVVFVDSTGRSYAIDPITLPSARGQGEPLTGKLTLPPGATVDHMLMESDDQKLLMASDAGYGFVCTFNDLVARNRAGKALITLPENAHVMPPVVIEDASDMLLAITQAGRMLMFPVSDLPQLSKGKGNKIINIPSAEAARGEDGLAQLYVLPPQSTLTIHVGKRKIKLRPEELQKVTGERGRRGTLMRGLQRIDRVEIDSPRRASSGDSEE
T1 sequence (P20083 whole entry): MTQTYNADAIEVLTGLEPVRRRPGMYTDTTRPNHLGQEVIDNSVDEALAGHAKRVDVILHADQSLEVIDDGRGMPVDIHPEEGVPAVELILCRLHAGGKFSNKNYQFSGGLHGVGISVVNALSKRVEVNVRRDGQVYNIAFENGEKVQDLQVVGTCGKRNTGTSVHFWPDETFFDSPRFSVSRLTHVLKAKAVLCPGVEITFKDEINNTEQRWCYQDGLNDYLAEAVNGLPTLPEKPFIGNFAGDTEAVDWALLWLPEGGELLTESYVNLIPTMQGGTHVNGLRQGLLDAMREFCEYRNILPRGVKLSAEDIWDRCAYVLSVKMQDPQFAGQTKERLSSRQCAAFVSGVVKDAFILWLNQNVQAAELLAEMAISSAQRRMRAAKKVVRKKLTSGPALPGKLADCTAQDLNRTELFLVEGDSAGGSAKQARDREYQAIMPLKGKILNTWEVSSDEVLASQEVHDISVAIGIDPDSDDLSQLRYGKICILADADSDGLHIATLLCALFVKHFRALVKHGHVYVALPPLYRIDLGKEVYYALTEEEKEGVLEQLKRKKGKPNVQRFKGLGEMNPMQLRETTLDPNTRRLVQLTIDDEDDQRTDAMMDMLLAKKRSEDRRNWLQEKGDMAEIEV

As for `N#CCC(=O)NNC(=S)NC(=O)Cc1ccccc1` [Compound 8, 1-(2-Cyanoacetyl)-4-phenylacetylthiosemicarbazide], the IC50 turned out to be 19.7 ± 1 µM against E. coli Topoisomerase IV; 0.33 µM on E. coli DNA gyrase B; 144.7 ± 0.36 µM in data set [11]; 22.4 ± 0.36 µM in data set [12]; 189.5 ± 1.06 µM in [13]. Also, the MIC in [1] was determined as 1.25 ± 0.5 µg/mL (≈ 4.52 µM); in data set [2], 1.38 ± 0.25 µg/mL (≈ 4.99 µM); in data set [3], 3.25 ± 1 µg/mL (≈ 11.8 µM); in [4], 0.95 ± 0.22 µg/mL (≈ 3.44 µM); in [5], 39.8 ± 0.2 µg/mL (≈ 144 µM); in data set [6], 2.11 ± 0.51 µg/mL (≈ 7.64 µM). Moreover, the zone of inhibition in [7] came out at 36 ± 0.12 mm; in data set [8], 27 ± 0.62 mm; in [9], 18 ± 0.05 mm; in [10], 27 ± 0.21 mm; in data set [14], 42 ± 0.3 mm; in [15] it was 39 ± 1.21 mm.
For `Cc1occc1C(=O)NNC(=S)NC(=O)c1ccccc1` [I], the IC50 in data set [16] was 14.6 µM.
In the case of `COc1ccc(NC(=S)Nc2nc(-c3nnc(S)n3-c3ccc(OC)cc3OC)cs2)c(OC)c1` [V], the “fold more active than the positive control methotrexate as DHFR inhibitor” value in [17] was 2.7 fold.
